Values quoted from earlier work in EP1227797B1, “SOLID DISPERSION PHARMACEUTICAL FORMULATIONS” (ABBOTT LABORATORIES, priority 1999, dated 2001).

Details: PEG solid dispersion formulation

bioavailability: unable to improve the bioavailability
Compound: O=C1N(Cc2ccc(CO)cc2)[C@H](Cc2ccccc2)[C@H](O)[C@@H](O)[C@@H](Cc2ccccc2)N1Cc1ccc(CO)cc1 [DMP 323]
